Tests used:
[1] = system: human coagulation factor XI protein; assay: In vivo activity in human coagulation factor XI model mice (Experimental Example 3), plasma FXI protein by ELISA; conditions: humanized mice
Description: The humanized mice used in this experimental example were purchased from Cyagen Biosciences Co., Ltd. The humanized mice were randomly divided into groups, with 4 mice per group. The compound and PBS control (pH = 7.2) were administered to each group of mice, respectively. The day of the first administration was designated as day 0 of the experiment. The corresponding compound solutions were administered via a single subcutaneous injection based on animal body weight, at administration doses of 1 mg/kg and 5 mg/kg. PBS control mice were each administered PBS, with an administration volume of 10 mL/kg body weight. Orbital blood was collected before administration and on day 7, day 14, day 28, day 42, and day 63 after administration. Plasma was separated, and the content of the coagulation factor XI protein in the plasma was measured at each time point.
About 165 µL of blood was collected from the orbital veins for plasma collection. A 3.8% trisodium citrate anticoagulant was added to the whole blood in a volume ratio of 1:9 (anticoagulant:[…], v/v), and the mixture was centrifuged at 3000 rpm at 20 °C for 15 min to collect plasma. The content of the coagulation factor XI protein in the plasma obtained from the above groups of mice (test groups administered the compound and PBS control group) was measured using a Human Coagulation Factor XI ELISA kit (Sigma, Cat. No. RAB1385-1KT).
(§1) The coagulation factor XI protein inhibition rate was calculated according to the following equation: [formula]
Table 11 lists the measurement of FXI protein content in animal plasma before and on day 7, day 14, day 28, day 42, and day 63 after a single subcutaneous administration of siRNA ligand conjugates (TD01M01L01, TD02M01L01) at doses of 1 mg/kg and 5 mg/kg to humanized homozygous mice. […] Table 11. In vivo experimental design

[2] = system: human coagulation factor XI protein; assay: In vivo activity in human coagulation factor XI model mice (Experimental Example 4), FXI protein by ELISA; conditions: female humanized homozygous mice, single subcutaneous 3 mg/kg
Description: The humanized mice used in this experimental example were purchased from Cyagen Biosciences Co., Ltd. The female humanized homozygous mice were randomly divided into groups, with 4 mice per group. The compound and PBS control (pH = 7.2) were administered to each group of mice, respectively. The day of the first administration was designated as day 0 of the experiment. The corresponding compound solutions were administered via a single subcutaneous injection based on animal body weight, at an administration dose of 3 mg/kg. PBS control mice were each administered PBS, with an administration volume of 10 mL/kg body weight. Orbital blood was collected before administration and on day 3, day 7, day 14, day 21, day 28, day 42, day 56, and day 70 after administration. Serum was separated, and the content of the coagulation factor XI protein in the serum at each time point was measured using a Human Coagulation Factor XI ELISA kit (Thermo, Batch No. 2350072722, Cat. No. EH118RB).
as §1
Table 13 lists the measurement of coagulation factor XI protein content in animal plasma before and on day 3, day 7, day 14, day 21, day 28, day 42, day 56, and day 70 after a single subcutaneous administration of siRNA ligand conjugates at a dose of 3 mg/kg to humanized homozygous mice. […] Table 13. In vivo experimental design

[3] = system: human coagulation factor XI protein; assay: In vivo activity in AAV-FXI model mice, serum FXI protein by ELISA; conditions: AAV-FXI mice (C57BL/6 male), single subcutaneous 3 mg/kg
Description: 4-6 week old C57BL/6 male mice were injected via the tail vein with 1 × 10^11 vg of AAV8-FXI (WZ Biosciences). On day 28 after modeling, mice with an hFXI protein content of greater than 100 ng/mL were selected. The mice were randomly divided into groups based on body weight and were injected with 3 mg/kg of the dsRNA ligand conjugate of the present application (amount calculated based on siRNA only) on day 0. Orbital blood was collected on day 7, day 14, day 35, and day 56. Serum was separated, and the content of the coagulation factor XI protein in the serum at each time point was measured using a Human Coagulation Factor XI ELISA kit (Thermo, Cat. No. EH118RB).
as §1
The content of the coagulation factor XI protein in animal serum was measured before and on day 7, day 14, day 35, and day 56 after a single subcutaneous administration of the dsRNA ligand conjugate of the present application at a dose of 3 mg/kg to AAV-FXI mice (see Table 15). […] Table 15. In vivo experimental design

[4] = single subcutaneous 1 mg/kg, D7
[5] = single subcutaneous 1 mg/kg, D14
[6] = single subcutaneous 1 mg/kg, D28
[7] = single subcutaneous 1 mg/kg, D42
[8] = single subcutaneous 1 mg/kg, D63
[9] = single subcutaneous 5 mg/kg, D7
[10] = single subcutaneous 5 mg/kg, D14
[11] = single subcutaneous 5 mg/kg, D28
[12] = single subcutaneous 5 mg/kg, D42
[13] = single subcutaneous 5 mg/kg, D63

Substance | Relative inhibition rate (%) of FXI protein [1, 4] [%] | Relative inhibition rate (%) of FXI protein [1, 5] [%] | Relative inhibition rate (%) of FXI protein [1, 6] [%] | Relative inhibition rate (%) of FXI protein [1, 7] [%] | Relative inhibition rate (%) of FXI protein [1, 8] [%] | Relative inhibition rate (%) of FXI protein [1, 9] [%] | Relative inhibition rate (%) of FXI protein [1, 10] [%] | Relative inhibition rate (%) of FXI protein [1, 11] [%] | Relative inhibition rate (%) of FXI protein [1, 12] [%] | Relative inhibition rate (%) of FXI protein [1, 13] [%] | Relative inhibition rate (%) of FXI protein ([3]; D7) [%] | Relative inhibition rate (%) of FXI protein ([3]; D14) [%] | also measured
TD01M01L01: siRNA ligand conjugate: TD01M01 with L01 (GalNAc) ligand at 3' end of sense strand SEQ ID NO 29; antisense SEQ ID NO 30 (sense GATCTCCAACTAAAATACT; antisense AGTATTTTAGTTGGAGATCCG; GalNAc L01 ligand at sense 3' end, 2'-OMe/2'-F, pattern not given here) | 58.1 | 67.5 | 58.6 | 68.8 | 41.3 | 90.5 | 92.8 | 89.5 | 91.8 | 74.4 | – | – | –
TD01M02L01: siRNA ligand conjugate: TD01M02 with L01 (GalNAc) ligand at 3' end of sense strand SEQ ID NO 31; antisense SEQ ID NO 32 (sense GATCTCCAACTAAAATACT; antisense AGTATTTTAGTTGGAGATCCG; GalNAc L01 ligand at sense 3' end, 2'-OMe/2'-F, pattern not given here) | 65.1 | 67.4 | 62.5 | 69.3 | 44.6 | 90.9 | 93.1 | 92.4 | 93.1 | 76.6 | – | – | Relative inhibition rate (%) of FXI protein ([2]; D3): 69.3%; Relative inhibition rate (%) of FXI protein ([2]; D7): 88.5%; Relative inhibition rate (%) of FXI protein ([2]; D14): 91.8%; Relative inhibition rate (%) of FXI protein ([2]; D21): 91.7%; Relative inhibition rate (%) of FXI protein ([2]; D28): 91.3%; Relative inhibition rate (%) of FXI protein ([2]; D42): 86.1%; Relative inhibition rate (%) of FXI protein ([2]; D56): 76.1%; Relative inhibition rate (%) of FXI protein ([2]; D70): 68.9%
TD02M01L01: siRNA ligand conjugate: TD02M01 with L01 (GalNAc) ligand at 3' end of sense strand SEQ ID NO 33; antisense SEQ ID NO 34 (sense GGATGATTTTCTTATATCA; antisense TGATATAAGAAAATCATCCTG; GalNAc L01 ligand at sense 3' end, 2'-OMe/2'-F, pattern not given here) | 61.5 | 63.9 | 49.2 | 52.9 | 41.1 | 91.8 | 94.0 | 87.8 | 89.4 | 69.0 | – | – | –
TD05M02L01: dsRNA ligand conjugate: TD05M02 with L01 (GalNAc) ligand at 3' end of sense strand SEQ ID NO 47; antisense SEQ ID NO 48 (sense CTTTTCAGGATGATTTTCT; antisense AGAAAATCATCCTGAAAAGAC; GalNAc L01 ligand at sense 3' end, 2'-OMe/2'-F, pattern not given here) | – | – | – | – | – | – | – | – | – | – | 96.3 | 96.6 | Relative inhibition rate (%) of FXI protein ([3]; D35): 81.7%; Relative inhibition rate (%) of FXI protein ([3]; D56): 51.0%
TD12M02L01: dsRNA ligand conjugate: TD12M02 with L01 (GalNAc) ligand at 3' end of sense strand SEQ ID NO 75; antisense SEQ ID NO 76 (sense TGATTTTCTTATATCAAGT; antisense ACTTGATATAAGAAAATCATC; GalNAc L01 ligand at sense 3' end, 2'-OMe/2'-F, pattern not given here) | – | – | – | – | – | – | – | – | – | – | 88.4 | 88.0 | –
